The values below come from PMC7006677 (Pharmacological reports : PR, 2020).

What all share (assay type): cell-based
The target in test [1] is T1, GABAA receptor (α1β3γ2L), β3 subunit (Homo sapiens, UniProt P14867+P18507+P28472). Nature of the test: two-electrode voltage clamp. (In general: Two-electrode voltage clamp holds a large cell at a set potential and records current.)
Test [2] addresses T1, GABAA receptor (α1β3γ2L), β3 subunit. The experiment in a line: two-electrode voltage clamp. The source holds these as a separate data set.
Test [3] has the same target. Nature of the test: two-electrode voltage clamp in oocytes.

T1 sequence (P28472 26-473): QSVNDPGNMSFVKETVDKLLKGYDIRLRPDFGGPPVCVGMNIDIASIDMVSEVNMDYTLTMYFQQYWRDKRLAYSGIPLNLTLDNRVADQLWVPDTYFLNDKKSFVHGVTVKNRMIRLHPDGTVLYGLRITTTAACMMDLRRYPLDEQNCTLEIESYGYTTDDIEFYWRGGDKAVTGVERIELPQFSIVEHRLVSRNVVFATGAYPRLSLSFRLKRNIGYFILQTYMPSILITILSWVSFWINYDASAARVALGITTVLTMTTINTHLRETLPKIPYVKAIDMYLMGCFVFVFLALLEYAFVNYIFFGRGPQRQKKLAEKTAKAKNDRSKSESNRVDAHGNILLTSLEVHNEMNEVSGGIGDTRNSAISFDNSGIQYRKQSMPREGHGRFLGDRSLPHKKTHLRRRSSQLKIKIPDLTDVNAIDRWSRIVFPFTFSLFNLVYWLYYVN
T1 sequence (P14867 28-456): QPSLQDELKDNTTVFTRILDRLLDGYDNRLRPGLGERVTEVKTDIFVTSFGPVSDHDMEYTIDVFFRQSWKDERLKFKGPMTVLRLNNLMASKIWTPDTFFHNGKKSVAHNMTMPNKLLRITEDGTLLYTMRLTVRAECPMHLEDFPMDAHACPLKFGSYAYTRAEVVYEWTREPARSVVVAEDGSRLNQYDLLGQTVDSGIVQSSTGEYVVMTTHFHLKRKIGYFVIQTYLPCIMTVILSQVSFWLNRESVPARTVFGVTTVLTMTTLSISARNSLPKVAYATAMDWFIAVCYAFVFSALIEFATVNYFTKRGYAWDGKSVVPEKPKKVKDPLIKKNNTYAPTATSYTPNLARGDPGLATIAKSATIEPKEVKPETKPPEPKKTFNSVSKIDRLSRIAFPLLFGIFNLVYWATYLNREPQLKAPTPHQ
T1 sequence (P18507 40-475): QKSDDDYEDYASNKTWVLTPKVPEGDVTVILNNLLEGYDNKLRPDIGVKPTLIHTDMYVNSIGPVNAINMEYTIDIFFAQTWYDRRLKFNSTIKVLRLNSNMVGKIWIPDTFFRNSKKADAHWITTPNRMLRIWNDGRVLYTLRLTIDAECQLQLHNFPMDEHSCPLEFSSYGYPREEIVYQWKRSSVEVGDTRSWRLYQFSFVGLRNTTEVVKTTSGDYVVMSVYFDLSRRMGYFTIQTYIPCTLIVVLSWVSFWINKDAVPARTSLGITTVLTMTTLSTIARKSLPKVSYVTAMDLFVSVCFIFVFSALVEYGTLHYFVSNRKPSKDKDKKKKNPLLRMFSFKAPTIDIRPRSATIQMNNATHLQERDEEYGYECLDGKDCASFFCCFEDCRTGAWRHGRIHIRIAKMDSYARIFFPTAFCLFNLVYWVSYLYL

As for `CCOC(=O)Nc1ccc(NCc2c(C)cc(C)cc2C)cc1N` [AA29504], the “two-electrode voltage clamp; potentiation of EC5 GABA currents, reversed by naph” value (shortened to “two-electrode voltage clamp … by naph”) in test [1] is reported as ~ 1 μM.

With `Cl/C(=C\n1cncn1)c1ccc(Cl)cc1Cl` [Loreclezole], the “two-electrode voltage clamp … by naph” value in test [1] was ~ 10 μM.

Consider `OCC(Cl)(Cl)Cl` [2,2,2-Trichloroethanol], for which the “two-electrode voltage clamp … by naph” value in test [1] is listed as ~ 2 mM.

As to `NCc1cc(=O)[nH]o1` [Muscimol], the “two-electrode voltage clamp; potentiation of EC5 GABA currents, not reversed by” value in test [2] is ~ 3 μM.

naphthalene-etomidate: in test [3], inhibition was half-maximal at 76 µM (IC50).

`CC(=O)[C@H]1CC[C@H]2[C@@H]3CC[C@H]4C[C@H](O)CC[C@]4(C)[C@H]3C(=O)C[C@]12C` [Alphaxalone]: the “two-electrode voltage clamp … by naph” value in test [1] was ~ 2 μM.

As for `FC(F)OC(Cl)C(F)(F)F` (stereo not shown) [Isoflurane], in test [1], the “two-electrode voltage clamp … by naph” value was ~ 1.5 mM.
